From article PMC4474554 (PLoS ONE, 2015)
Where two headings read alike, the source gives them in different places.

Legend:
[1] = test system: NCI-H1993; assay: MTS assay, NCI-H1993
[2] = test system: phospho-EGFR and phospho-AKT; assay: Western blotting, EGFR and AKT phosphorylation in transfected HEK-293T; type: cell-based; conditions: HEK-293T cell with the mutant EGFR (L858R)
Experimental: Next, they were washed out with cold PBS and lysed in 1 × cell lysis buffer [20 mM Tris-HCl (pH 7.5), 150 mM NaCl, 1 mM Na2EDTA, 1 mM EGTA, 1% Triton, 2.5 mM sodium pyrophosphate, 1 mM beta-glycerophosphate, 1 mM Na3VO4, 1 μg/ml leupeptin] (Cell signaling Technology) supplemented with Complete, Mini (Roche, Basel, Switzerland) to extract protein. After the protein concentration was measured, equal amounts of total protein (30 μg) were separated by SDS-PAGE and transferred to PVDF membranes. The proteins on membranes were incubated overnight at 4°C with the primary antibodies. The following secondary antibodies were used: goat antirabbit or antimouse IgG-conjugated horseradish peroxidase (HRP) (Santa Cruz Biotechnology, Santa Cruz, CA). To detect specific signals, the membranes were incubated by ECL plus Western Blotting Detection Reagents (Amersham Biosciences UK Limited, Buckinghamshire, UK).

[3] = test system: c-Src; conditions: updated data; cited from earlier work
[4] = test system: ZAP-70; parameters: method as in earlier work; conditions: updated data; cited from earlier work
[5] = test system: Flt-3; parameters: method as in earlier work; conditions: updated data; cited from earlier work

`CNC(=O)c1ccccc1Nc1nc(Nc2ccc(N3CCOCC3)cc2OC)ncc1Cl` [TAE226] showed an IC50 ([1]; read-out: IC50 (μM) (mean ± SD), NCI-H1993, MET amplification, MTS, TAE226 48 hours, gefitinib 72 hours) of 0.89 ± 0.001 µM, an IC50 ([1]; read-out: each IC50, NCI-H1993, independent MTS assays) of 0.89 µM and an IC50 ([1]; read-out: mean IC50, NCI-H1993, mean of independent MTS assays) of 0.89 µM. The “phosphorylations of EGFR and AKT” value [2] was “inhibited”, the IC50 [3] was 910 nM and the IC50 [4] was 7700 nM. The IC50 [5] was […].
